Read-outs that look alike come from different tables or passages of the source.
What was measured:
[1] = test system: CYP3A4; assay: Drug metabolism experiment with midazolam, CYP3A4 metabolic activity of human intestinal organoids obtained with polysaccharide polymers; settings: 5 μmol/L midazolam
[2] = test system: CYP3A8
[3] = test system: CYP3A4
[4] = test system: CYP3A4; assay: CYP3A4 induction ability of human intestinal organoids obtained with polysaccharide polymers (mRNA and midazolam metabolic activity); settings: VD3 1 μmol/L, 72 hours
[5] = target: T1, ABCB1/MDR1 (Homo sapiens, UniProt P08183); assay: Rhodamine 123 transport experiment, human intestinal organoids obtained with polysaccharide polymers; format: in vitro ADME
[6] = target: T1, ABCB1/MDR1; assay: Rhodamine 123 uptake experiment, function of ABCB1/MDR1 in human intestinal organoids (fluorescence observation); format: in vitro ADME; settings: rhodamine 123 10 μmol/L, 37° C., 1 hour, absence of verapamil
[7] = test system: CYP3A8; assay: Drug metabolism experiment with midazolam, CYP3A8 metabolic activity of cynomolgus monkey intestinal organoids; settings: 5 μmol/L midazolam, 37° C., 24 hours
[8] = target: T2, ABCG2/BCRP (Homo sapiens, UniProt Q9UNQ0); assay: Hoechst 33342 transport experiment, human intestinal organoids obtained with polysaccharide polymers; format: in vitro ADME
T2 sequence (Q9UNQ0 1-655): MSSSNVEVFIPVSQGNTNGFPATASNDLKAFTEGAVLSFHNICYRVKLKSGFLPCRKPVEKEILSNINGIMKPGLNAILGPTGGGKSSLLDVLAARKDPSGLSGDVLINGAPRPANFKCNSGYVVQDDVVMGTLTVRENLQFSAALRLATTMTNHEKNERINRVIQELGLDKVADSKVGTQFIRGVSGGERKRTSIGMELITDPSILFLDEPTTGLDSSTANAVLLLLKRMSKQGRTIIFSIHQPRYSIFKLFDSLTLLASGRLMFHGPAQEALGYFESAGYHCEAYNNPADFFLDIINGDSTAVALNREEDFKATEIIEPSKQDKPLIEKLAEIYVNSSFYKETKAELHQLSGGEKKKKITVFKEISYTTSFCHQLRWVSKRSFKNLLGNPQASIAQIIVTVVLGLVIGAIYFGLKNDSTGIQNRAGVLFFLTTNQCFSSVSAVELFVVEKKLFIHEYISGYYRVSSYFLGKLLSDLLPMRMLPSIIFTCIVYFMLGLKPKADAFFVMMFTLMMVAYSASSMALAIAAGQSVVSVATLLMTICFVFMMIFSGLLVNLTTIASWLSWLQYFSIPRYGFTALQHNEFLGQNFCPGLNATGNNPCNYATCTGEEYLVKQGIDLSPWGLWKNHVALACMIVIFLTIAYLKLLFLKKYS

T1 sequence (P08183 whole entry): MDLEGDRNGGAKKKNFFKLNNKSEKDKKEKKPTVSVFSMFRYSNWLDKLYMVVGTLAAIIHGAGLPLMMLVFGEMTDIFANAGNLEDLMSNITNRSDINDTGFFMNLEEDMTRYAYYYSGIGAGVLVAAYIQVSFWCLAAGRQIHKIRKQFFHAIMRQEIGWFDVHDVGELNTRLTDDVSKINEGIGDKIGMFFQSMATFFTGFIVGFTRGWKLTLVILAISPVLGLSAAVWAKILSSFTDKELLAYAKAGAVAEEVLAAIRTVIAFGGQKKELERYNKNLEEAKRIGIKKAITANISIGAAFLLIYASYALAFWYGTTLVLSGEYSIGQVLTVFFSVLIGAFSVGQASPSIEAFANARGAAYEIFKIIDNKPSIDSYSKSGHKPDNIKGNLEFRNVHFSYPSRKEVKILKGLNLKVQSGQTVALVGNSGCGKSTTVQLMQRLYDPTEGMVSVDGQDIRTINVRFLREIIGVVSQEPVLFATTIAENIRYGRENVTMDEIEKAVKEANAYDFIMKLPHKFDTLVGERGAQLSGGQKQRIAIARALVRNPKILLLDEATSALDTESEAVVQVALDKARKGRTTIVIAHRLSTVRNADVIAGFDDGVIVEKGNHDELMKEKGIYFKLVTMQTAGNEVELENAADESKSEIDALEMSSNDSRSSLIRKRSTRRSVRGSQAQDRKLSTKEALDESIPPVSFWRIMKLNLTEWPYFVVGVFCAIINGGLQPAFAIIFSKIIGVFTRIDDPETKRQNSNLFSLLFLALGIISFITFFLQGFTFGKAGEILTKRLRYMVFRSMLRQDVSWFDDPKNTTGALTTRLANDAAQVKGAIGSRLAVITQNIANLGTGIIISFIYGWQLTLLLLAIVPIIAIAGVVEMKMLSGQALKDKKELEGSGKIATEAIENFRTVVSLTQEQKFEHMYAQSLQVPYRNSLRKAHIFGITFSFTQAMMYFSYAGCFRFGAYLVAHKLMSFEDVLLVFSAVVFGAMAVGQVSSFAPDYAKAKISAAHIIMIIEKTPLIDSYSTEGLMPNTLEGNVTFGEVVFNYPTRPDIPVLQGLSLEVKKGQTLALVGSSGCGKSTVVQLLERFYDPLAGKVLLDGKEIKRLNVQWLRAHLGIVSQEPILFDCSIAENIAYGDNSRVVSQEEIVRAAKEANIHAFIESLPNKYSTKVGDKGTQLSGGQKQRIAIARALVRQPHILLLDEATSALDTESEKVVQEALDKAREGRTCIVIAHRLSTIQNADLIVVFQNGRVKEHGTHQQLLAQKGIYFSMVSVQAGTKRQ

## CC(=O)N1CCN(c2ccc(OCC3COC(Cn4ccnc4)(c4ccc(Cl)cc4Cl)O3)cc2)CC1 (stereo not shown) [ketoconazole]
[1]
  effect of inhibitor on midazolam metabolic activity: significantly inhibited

## C=C1/C(=C\C=C2/CCC[C@]3(C)[C@@H]([C@H](C)CCCC(C)(C)O)CC[C@@H]23)C[C@@H](O)C[C@@H]1O [VD3, 1α, 25-dihydroxyvitamin D3]
[2]
  induction of mRNA expression of CYP3A8 as compared with the control group: no induction
[3]
  induction of mRNA expression of CYP3A4 as compared with the control group: approximately 4.5 times
[4]; 5 μmol/L midazolam
  midazolam metabolic activity in the inducer-added group: significantly increased
[4]; organoids obtained with polysaccharide polymers
  induction of mRNA expression of CYP3A4 as compared with the control group: significantly induced

## rhodamine 123
[5]
  excretion of rhodamine 123 into the intestinal organoids: observed
[6]
  excretion of rhodamine 123 into the intestinal organoids: observed

## Cc1ncc2n1-c1ccc(Cl)cc1C(c1ccccc1F)=NC2 [midazolam]
[1]; 37° C., 24 hours
  midazolam metabolic activity: observed
[7]
  midazolam metabolic activity: observed

## CCOc1ccc(-c2nc3ccc(-c4nc5ccc(N6CCN(C)CC6)cc5[nH]4)cc3[nH]2)cc1 [Hoechst 33342]
[8]
  excretion of Hoechst 33342 into the intestinal organoids: observed
